Data as given in the OligoGym collection.
Oligonucleotides are written 5' to 3', each unit as a sugar letter and its base; * is a phosphorothioate linkage, no mark a phosphodiester; rarer units and linkages stand in square brackets, end groups in braces. Plain capitals give the bases only. d = 2'-deoxy (DNA); r = 2'-OH (RNA)

molecular target: UBE2G1; assay: reporter assay of Huesken 2005; details: siRNA
Further: test concentration or dose not given here.

Row | Substance | normalised inhibition (eCFP-eYFP dual reporter) [%]
1 | sense rUrCrCrCrUrArUrCrCrArCrArCrUrGrUrGrGrAdTdT / antisense rUrCrCrArCrArGrUrGrUrGrGrArUrArGrGrGrAdGdC | 62.1
2 | sense rUrCrCrUrUrArUrUrArUrUrGrGrCrCrCrUrCrCdTdT / antisense rGrGrArGrGrGrCrCrArArUrArArUrArArGrGrAdCdT | 44.7
3 | sense rUrCrUrGrCrArGrGrUrUrUrArArUrArGrArUrGdTdT / antisense rCrArUrCrUrArUrUrArArArCrCrUrGrCrArGrAdAdA | 60.6
4 | sense rUrCrUrGrGrCrArCrCrCrArArArUrGrUrUrGrAdTdT / antisense rUrCrArArCrArUrUrUrGrGrGrUrGrCrCrArGrAdTdT | 73.4
5 | sense rUrGrArArArArGrCrCrArGrArGrGrArArCrGrCdTdT / antisense rGrCrGrUrUrCrCrUrCrUrGrGrCrUrUrUrUrCrAdTdA | 35.9
6 | sense rUrGrArArArUrUrCrArUrUrArCrArGrArArArUdTdT / antisense rArUrUrUrCrUrGrUrArArUrGrArArUrUrUrCrAdTdT | 61.6
7 | sense rUrGrArUrGrUrGrUrGrCrArUrUrUrCrUrArUrUdTdT / antisense rArArUrArGrArArArUrGrCrArCrArCrArUrCrAdCdC | 74.8
8 | sense rUrGrArUrUrArGrUrGrUrCrArUrUrUrCrUrArUdTdT / antisense rArUrArGrArArArUrGrArCrArCrUrArArUrCrAdTdG | 78.5
9 | sense rUrGrCrCrCrGrCrUrGrUrGrUrArArGrArArArAdTdT / antisense rUrUrUrUrCrUrUrArCrArCrArGrCrGrGrGrCrAdAdC | 94.3
10 | sense rUrGrCrGrArArArGrArArUrGrGrArGrGrGrArAdTdT / antisense rUrUrCrCrCrUrCrCrArUrUrCrUrUrUrCrGrCrAdGdC | 72.7
11 | sense rUrGrCrUrGrCrGrArArArGrArArUrGrGrArGrGdTdT / antisense rCrCrUrCrCrArUrUrCrUrUrUrCrGrCrArGrCrAdTdC | 34.4
12 | sense rUrGrGrArGrArArUrUrUrArArArArGrArArArAdTdT / antisense rUrUrUrUrCrUrUrUrUrArArArUrUrCrUrCrCrAdTdT | 74.2
13 | sense rUrGrGrUrGrArUrGrUrGrUrGrCrArUrUrUrCrUdTdT / antisense rArGrArArArUrGrCrArCrArCrArUrCrArCrCrAdTdT | 85
14 | sense rUrUrArGrUrGrUrCrArUrUrUrCrUrArUrGrCrUdTdT / antisense rArGrCrArUrArGrArArArUrGrArCrArCrUrArAdTdC | 54
15 | sense rUrUrCrUrArUrGrCrUrGrGrCrArGrArCrCrCrUdTdT / antisense rArGrGrGrUrCrUrGrCrCrArGrCrArUrArGrArAdAdT | 61
16 | sense rUrUrUrArArArArGrArArArArGrUrUrGrCrCrCdTdT / antisense rGrGrGrCrArArCrUrUrUrUrCrUrUrUrUrArArAdTdT | 43.5
17 | sense rUrUrUrCrUrArUrUrCrUrUrCrArUrGrArGrCrCdTdT / antisense rGrGrCrUrCrArUrGrArArGrArArUrArGrArArAdTdG | 29.5
18 | sense rUrUrUrCrUrGrCrArGrGrUrUrUrArArUrArGrAdTdT / antisense rUrCrUrArUrUrArArArCrCrUrGrCrArGrArArAdAdG | 51.7

molecular target: UBE2E3; assay: reporter assay of Huesken 2005; details: siRNA

Row | Substance | normalised inhibition (eCFP-eYFP dual reporter) [%]
19 | sense rArArArArCrCrUrUrCrUrGrCrCrArCrCrCrArGdTdT / antisense rCrUrGrGrGrUrGrGrCrArGrArArGrGrUrUrUrUdCdT | 32.1
20 | sense rArArArGrGrUrUrArCrUrUrUrCrCrGrCrArCrCdTdT / antisense rGrGrUrGrCrGrGrArArArGrUrArArCrCrUrUrUdGdG | 50.7
21 | sense rArArCrArGrArGrCrArGrArArCrArCrGrArCrAdTdT / antisense rUrGrUrCrGrUrGrUrUrCrUrGrCrUrCrUrGrUrUdGdG | 76.9
22 | sense rArArCrArGrUrCrArGrGrGrArGrUrCrArUrCrUdTdT / antisense rArGrArUrGrArCrUrCrCrCrUrGrArCrUrGrUrUdGdA | 58.5
23 | sense rArArCrUrCrUrCrUrArGrCrArArArArCrCrArCdTdT / antisense rGrUrGrGrUrUrUrUrGrCrUrArGrArGrArGrUrUdTdG | 52.4
24 | sense rArArGrGrArGrArUrArArCrArUrUrUrArUrGrAdTdT / antisense rUrCrArUrArArArUrGrUrUrArUrCrUrCrCrUrUdTdA | 52
25 | sense rArArUrUrCrArGrArArGrGrArGrCrUrArGrCrUdTdT / antisense rArGrCrUrArGrCrUrCrCrUrUrCrUrGrArArUrUdCdT | 71.2
26 | sense rArCrArCrCrArArArCrUrCrUrCrUrArGrCrArAdTdT / antisense rUrUrGrCrUrArGrArGrArGrUrUrUrGrGrUrGrUdTdT | 90.1
27 | sense rArCrArGrGrArUrArGrCrCrArGrArCrArGrUrGdTdT / antisense rCrArCrUrGrUrCrUrGrGrCrUrArUrCrCrUrGrUdCdG | 55.2
28 | sense rArCrArUrCrArArCrArGrUrCrArGrGrGrArGrUdTdT / antisense rArCrUrCrCrCrUrGrArCrUrGrUrUrGrArUrGrUdTdG | 69.9
29 | sense rArCrUrArUrUrUrCrArArArGrGrUrUrUrUrGrCdTdT / antisense rGrCrArArArArCrCrUrUrUrGrArArArUrArGrUdCdA | 34.3
30 | sense rArCrUrGrCrArArCrCrCrUrGrCrGrGrArUrCrCdTdT / antisense rGrGrArUrCrCrGrCrArGrGrGrUrUrGrCrArGrUdCdT | 71.1
31 | sense rArGrArUrCrArArCrUrArUrArCrUrUrGrGrUrCdTdT / antisense rGrArCrCrArArGrUrArUrArGrUrUrGrArUrCrUdCdC | 52.8
32 | sense rArGrCrCrUrGrArArGrArArCrArArGrArGrGrAdTdT / antisense rUrCrCrUrCrUrUrGrUrUrCrUrUrCrArGrGrCrUdCdT | 89
33 | sense rArGrCrUrGrArArArUrArArCrCrCrUrUrGrArUdTdT / antisense rArUrCrArArGrGrGrUrUrArUrUrUrCrArGrCrUdAdG | 82
34 | sense rArGrUrCrCrCrGrCrUrUrUrGrArCrUrArUrUrUdTdT / antisense rArArArUrArGrUrCrArArArGrCrGrGrGrArCrUdCdC | 56.7
35 | sense rArUrArGrCrCrArCrUrCrArGrUrArUrUrUrGrAdTdT / antisense rUrCrArArArUrArCrUrGrArGrUrGrGrCrUrArUdGdC | 88.7

Row | Substance | normalised inhibition (eCFP-eYFP dual reporter) [%]
36 | sense rArUrCrArArCrArGrUrCrArGrGrGrArGrUrCrAdTdT / antisense rUrGrArCrUrCrCrCrUrGrArCrUrGrUrUrGrArUdGdT | 70.5
37 | sense rArUrCrArArCrUrArUrArCrUrUrGrGrUrCrCrAdTdT / antisense rUrGrGrArCrCrArArGrUrArUrArGrUrUrGrArUdCdT | 59.5
38 | sense rArUrCrArCrUrGrCrArArCrArUrCrArArCrArGdTdT / antisense rCrUrGrUrUrGrArUrGrUrUrGrCrArGrUrGrArUdAdG | 69.7
39 | sense rArUrUrCrArGrArArGrGrArGrCrUrArGrCrUrGdTdT / antisense rCrArGrCrUrArGrCrUrCrCrUrUrCrUrGrArArUdTdC | 42.3
40 | sense rArUrUrUrArArGrCrCrArCrCrArArArGrGrUrUdTdT / antisense rArArCrCrUrUrUrGrGrUrGrGrCrUrUrArArArUdGdG | 64.2
41 | sense rArUrUrUrGrUrUrCrCrCrUrUrUrUrGrArCrArGdTdT / antisense rCrUrGrUrCrArArArArGrGrGrArArCrArArArUdAdG | 47.8
42 | sense rCrArArArGrGrUrUrUrUrGrCrUrGrUrCrUrArUdTdT / antisense rArUrArGrArCrArGrCrArArArArCrCrUrUrUrGdAdA | 92.4
43 | sense rCrArArCrCrCrUrGrCrGrGrArUrCrCrUrCrUrGdTdT / antisense rCrArGrArGrGrArUrCrCrGrCrArGrGrGrUrUrGdCdA | 56.3
44 | sense rCrArCrCrArArArCrUrCrUrCrUrArGrCrArArAdTdT / antisense rUrUrUrGrCrUrArGrArGrArGrUrUrUrGrGrUrGdTdT | 84.2
45 | sense rCrArCrCrArArArGrGrUrUrArCrUrUrUrCrCrGdTdT / antisense rCrGrGrArArArGrUrArArCrCrUrUrUrGrGrUrGdGdC | 58.8
46 | sense rCrArCrUrCrArGrUrArUrUrUrGrArCrCrArArCdTdT / antisense rGrUrUrGrGrUrCrArArArUrArCrUrGrArGrUrGdGdC | 87.1
47 | sense rCrArGrUrGrCrUrGrGrGrCrCrUrArArArGrGrAdTdT / antisense rUrCrCrUrUrUrArGrGrCrCrCrArGrCrArCrUrGdCdA | 73.2
48 | sense rCrArGrUrGrGrCrArGrUrUrCrArGrArUrGrCrGdTdT / antisense rCrGrCrArUrCrUrGrArArCrUrGrCrCrArCrUrGdCdT | 53
49 | sense rCrCrArArArCrUrCrUrCrUrArGrCrArArArArCdTdT / antisense rGrUrUrUrUrGrCrUrArGrArGrArGrUrUrUrGrGdTdG | 69.8
50 | sense rCrCrArArCrArGrArGrCrArGrArArCrArCrGrAdTdT / antisense rUrCrGrUrGrUrUrCrUrGrCrUrCrUrGrUrUrGrGdTdC | 88.8
51 | sense rCrCrUrCrCrUrCrCrUrArArUrUrGrCrArGrUrGdTdT / antisense rCrArCrUrGrCrArArUrUrArGrGrArGrGrArGrGdAdT | 62.6
52 | sense rCrCrUrUrArArArGrArCrArArCrUrGrGrArGrUdTdT / antisense rArCrUrCrCrArGrUrUrGrUrCrUrUrUrArArGrGdAdT | 58.9
